According to paper PMC12311865, “In Vitro Evaluation of the Potential Interactions of Zearalenone-14-sulfate and Zearalenone-14-glucuronide with Human Cytochrome P450 Enzymes, Organic Anion Transporting Polypeptides, and ATP-Binding Cassette Multidrug Transporters” (ACS Omega, 2025):

Experiments:
MDR1 = biological target: T1, MDR1 (Homo sapiens, UniProt P08183); assay: MDR1-mediated NMQ vesicular transport (Sf9 membrane vesicles); assay type: biochemical; settings: 0–50 μM; NMQ 5 μM
T1 construct: made in house; host or cells: Sf9 insect cells (baculovirus)
Method: Experiments were performed in insect membrane vesicles, as described previously. Briefly, human MDR1, BCRP, and MRP2 were expressed in Sf9 insect cells by baculoviruses. On the third day of infection, cells were collected and membrane vesicles were obtained by mechanical disruption and differential centrifugation. To get full activity for BCRP, the cholesterol levels of the vesicles were adjusted to the level of mammalian membranes. Vesicles were stored at −80 °C, and the total protein content of the preparations was measured by the Lowry method (used as a reference for the quantity). […] A 100 μL volume of fluorescence stabilizer was added to the samples (DMSO for LY, 0.1 M H2SO4 for NMQ, and 0.1 M NaOH for CDCF). Fluorescence of samples was measured by plate readers (Victor X3 and Enspire PerkinElmer; Waltham, MA) at appropriate wavelengths (filters in the Victor X3 reader were 405/535 nm for LY and 492/635 nm for CDCF; while in the Enspire reader, NMQ was measured at 360/430 nm excitation/emission wavelengths). ABC-related transport was calculated by subtracting passive uptake measured without Mg-ATP from values measured in the presence of Mg-ATP.

OATP1B3 = biological target: T2, OATP1B3 (Homo sapiens, UniProt Q9NPD5); set-up: method as in earlier report; settings: same experimental model; ref earlier report; cited from earlier work
T2 construct: expressed in transfected cells; host or cells: A431
T2 sequence (Q9NPD5 1-702): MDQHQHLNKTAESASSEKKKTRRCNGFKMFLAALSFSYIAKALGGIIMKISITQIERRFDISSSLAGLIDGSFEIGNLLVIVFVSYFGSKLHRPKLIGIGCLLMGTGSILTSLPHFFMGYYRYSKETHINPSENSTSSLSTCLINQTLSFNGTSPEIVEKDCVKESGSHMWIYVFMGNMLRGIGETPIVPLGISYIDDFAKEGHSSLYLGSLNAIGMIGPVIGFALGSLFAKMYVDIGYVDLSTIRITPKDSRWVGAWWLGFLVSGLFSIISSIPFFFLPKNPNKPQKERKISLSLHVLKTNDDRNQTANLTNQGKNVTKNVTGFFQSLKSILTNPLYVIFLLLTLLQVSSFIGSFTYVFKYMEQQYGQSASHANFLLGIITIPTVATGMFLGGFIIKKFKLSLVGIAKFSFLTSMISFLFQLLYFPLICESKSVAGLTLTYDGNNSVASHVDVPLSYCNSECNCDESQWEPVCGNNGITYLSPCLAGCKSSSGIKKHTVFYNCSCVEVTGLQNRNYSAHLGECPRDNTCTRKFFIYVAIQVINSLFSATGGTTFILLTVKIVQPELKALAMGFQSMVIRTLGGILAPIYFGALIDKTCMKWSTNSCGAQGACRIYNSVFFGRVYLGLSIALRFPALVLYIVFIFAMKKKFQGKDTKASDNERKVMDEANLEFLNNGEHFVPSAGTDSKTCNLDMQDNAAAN

CYP1A2 = biological target: T3, CYP1A2 (Homo sapiens, UniProt P05177); set-up: purchased Abcam ab211075; method as in our previous study; settings: ref our previous study; cited from earlier work
T3 sequence (P05177 1-516): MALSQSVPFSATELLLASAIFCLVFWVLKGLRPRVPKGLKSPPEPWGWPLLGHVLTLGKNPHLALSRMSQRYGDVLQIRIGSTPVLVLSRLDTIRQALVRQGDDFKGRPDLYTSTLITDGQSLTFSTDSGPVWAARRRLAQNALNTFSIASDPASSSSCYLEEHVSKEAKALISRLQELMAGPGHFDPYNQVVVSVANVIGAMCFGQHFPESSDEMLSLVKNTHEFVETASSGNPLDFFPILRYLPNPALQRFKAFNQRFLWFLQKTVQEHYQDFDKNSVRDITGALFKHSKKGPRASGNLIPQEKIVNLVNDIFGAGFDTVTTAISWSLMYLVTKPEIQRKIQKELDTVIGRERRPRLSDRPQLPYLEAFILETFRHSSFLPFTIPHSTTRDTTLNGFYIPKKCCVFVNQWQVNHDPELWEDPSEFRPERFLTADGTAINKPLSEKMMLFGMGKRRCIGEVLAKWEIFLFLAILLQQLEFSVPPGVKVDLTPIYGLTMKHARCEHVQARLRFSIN

OATP1B1 = biological target: T4, OATP1B1 (Homo sapiens, UniProt Q9Y6L6); set-up: method as in earlier report; settings: same experimental model; ref earlier report; cited from earlier work
T4 construct: expressed in transfected cells; host or cells: A431
T4 sequence (Q9Y6L6 1-691): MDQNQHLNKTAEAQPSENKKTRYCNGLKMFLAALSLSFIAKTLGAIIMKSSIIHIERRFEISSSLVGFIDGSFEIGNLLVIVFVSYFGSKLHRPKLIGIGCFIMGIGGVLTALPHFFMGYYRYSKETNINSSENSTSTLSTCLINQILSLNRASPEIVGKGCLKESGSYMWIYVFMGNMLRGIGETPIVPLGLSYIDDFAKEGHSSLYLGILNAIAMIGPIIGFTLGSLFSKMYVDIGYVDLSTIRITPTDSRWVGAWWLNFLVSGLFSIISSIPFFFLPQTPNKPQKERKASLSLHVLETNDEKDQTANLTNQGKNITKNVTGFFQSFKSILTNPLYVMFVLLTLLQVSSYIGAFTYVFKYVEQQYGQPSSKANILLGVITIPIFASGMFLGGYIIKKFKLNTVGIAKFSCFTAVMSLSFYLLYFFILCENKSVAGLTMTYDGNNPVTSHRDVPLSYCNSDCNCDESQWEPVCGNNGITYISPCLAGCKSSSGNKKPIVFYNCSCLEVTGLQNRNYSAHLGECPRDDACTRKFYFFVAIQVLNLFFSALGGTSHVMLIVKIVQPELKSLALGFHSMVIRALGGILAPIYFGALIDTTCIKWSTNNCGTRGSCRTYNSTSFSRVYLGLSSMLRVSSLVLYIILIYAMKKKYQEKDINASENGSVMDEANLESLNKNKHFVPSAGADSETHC

T1 sequence (P08183 whole entry): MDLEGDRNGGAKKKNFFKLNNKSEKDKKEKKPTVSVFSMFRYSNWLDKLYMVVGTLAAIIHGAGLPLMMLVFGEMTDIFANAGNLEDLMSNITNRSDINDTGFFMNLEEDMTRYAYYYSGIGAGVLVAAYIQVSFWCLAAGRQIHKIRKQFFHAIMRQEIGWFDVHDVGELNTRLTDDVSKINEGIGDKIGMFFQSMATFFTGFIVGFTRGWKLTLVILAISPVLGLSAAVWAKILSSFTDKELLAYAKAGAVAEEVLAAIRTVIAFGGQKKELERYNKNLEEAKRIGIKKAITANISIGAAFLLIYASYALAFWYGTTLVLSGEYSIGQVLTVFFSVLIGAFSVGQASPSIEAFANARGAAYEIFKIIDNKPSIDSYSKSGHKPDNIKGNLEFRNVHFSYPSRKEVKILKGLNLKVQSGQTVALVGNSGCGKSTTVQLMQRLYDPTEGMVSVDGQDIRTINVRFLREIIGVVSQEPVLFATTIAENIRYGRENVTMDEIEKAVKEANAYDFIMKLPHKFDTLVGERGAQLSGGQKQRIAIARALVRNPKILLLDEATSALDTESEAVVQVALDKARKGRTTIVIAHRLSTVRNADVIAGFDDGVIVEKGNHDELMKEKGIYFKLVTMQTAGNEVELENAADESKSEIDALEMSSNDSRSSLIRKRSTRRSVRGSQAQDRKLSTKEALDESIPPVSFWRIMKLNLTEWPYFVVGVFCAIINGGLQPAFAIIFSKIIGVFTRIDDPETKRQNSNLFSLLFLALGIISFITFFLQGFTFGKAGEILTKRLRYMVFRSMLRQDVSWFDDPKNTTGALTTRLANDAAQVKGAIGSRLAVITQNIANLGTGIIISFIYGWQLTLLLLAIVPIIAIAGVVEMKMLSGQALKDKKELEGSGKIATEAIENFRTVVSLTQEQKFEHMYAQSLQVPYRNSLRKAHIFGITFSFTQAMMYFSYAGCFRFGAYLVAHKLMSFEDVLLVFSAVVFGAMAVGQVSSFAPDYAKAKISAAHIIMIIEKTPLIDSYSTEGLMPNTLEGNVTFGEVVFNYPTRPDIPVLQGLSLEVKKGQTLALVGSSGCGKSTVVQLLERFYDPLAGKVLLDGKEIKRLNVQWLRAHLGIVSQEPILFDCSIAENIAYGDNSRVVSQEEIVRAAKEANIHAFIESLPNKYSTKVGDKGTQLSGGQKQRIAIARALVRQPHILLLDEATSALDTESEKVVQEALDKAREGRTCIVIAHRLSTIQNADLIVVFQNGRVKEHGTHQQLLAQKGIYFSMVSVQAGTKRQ

In the case of `C[C@H]1CCCC(=O)CCC/C=C/c2cc(O)cc(O)c2C(=O)O1` [ZEN, Zearalenone], the “effect on MDR1-driven NMQ transport” value (MDR1) is given as “inhibition only at 50 μM concentration”, the IC50 (OATP1B3) is given as 8.1 µM and the IC50 (CYP1A2) is given as 7.8 µM. For the same molecule, the IC50 (OATP1B1) was greater than 10 µM.
